Data on 84 compounds can be found in PubChem BioAssay AID1959 (Broad Institute, 2009).

Active and inactive are the calls of the source.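 How the source made its calls: active means growth-inhibition EC50 no more than tenfold above the top tested dose; inconclusive means flat fit between 30% and 70% inhibition, or unreliable fit; inactive means EC50 more than tenfold above the top tested dose.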 Where only a bound is given, the exact number is not on record here.

For the test, the system named is E. coli NEB5alpha growth, BacTiter-Glo luminescence, 4 h. In words: Escherichia coli growth inhibition, dose response, counter-screen for MEX-5/POS-1 RNA-binding inhibitor project, luminescence, NEB5alpha (AID 1959).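 Further: pUC19-transformed ampicillin-resistant cells grown in LB with ampicillin.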
Regarding `Cc1ccc2c(c1C)NC(C(=O)O)C1CC=CC21` (centres undefined), the EC50 (as a rule, the midpoint of the concentration-response curve) was > 11 µM (inactive).
To `Cn1c(O)c(/C=C2\C=Nc3ccc(Br)cc32)c(=O)n(C)c1=O` belongs > 11 µM (inactive).
The figure for `COC(=O)CCCC1=CC2=CC(=O)C(C)(OC(=O)c3ccco3)C(=O)C2=CO1` (centres undefined) is > 11 µM (inactive); for `CCN1/C(=C2/SC(=S)N(NC(C)=O)C2=O)Sc2ccccc21` it is > 11 µM (inactive).
The figure for `O=C1NC(=Nc2ccccc2Cl)S/C1=C\c1cc([N+](=O)[O-])ccc1O` is > 11 µM (inactive).
With `COc1ccccc1C(=O)C1CCCN(C(=O)c2cccnc2SC)C1` (centres undefined), the EC50 is > 11 µM (inactive).
To `O=C(NNC(=O)c1cc(Cl)ccc1O)c1cccc(S(=O)(=O)N2CCOCC2)c1` belongs > 11 µM (inactive); to `O=C(Nc1ccccc1)NC1(C(=O)NCc2ccc3c(c2)OCO3)CCCCC1`, > 11 µM (inactive); to `CC(C)N1CCc2c(sc(NC(=O)c3ccc(S(=O)(=O)N(C)CC4CCCO4)cc3)c2C(N)=O)C1` (centres undefined), > 11 µM (inactive).
To `COc1ccc2nc(SCC(=O)Nc3nonc3C)[nH]c2c1` belongs > 11 µM (inactive); to `O=c1oc2ccc(Cl)cc2nc1/C=C(\O)c1cccs1`, > 11 µM (inactive).
The figure for `CCOP(=O)(OCC)C(Nc1cccc([N+](=O)[O-])c1)c1ccccc1` (centres undefined) is > 11 µM (inactive).
Turning to `Cc1cc(/C=C2\C(=O)NC(=O)N(c3ccc(F)cc3)C2=O)c(C)n1-c1ccc(C(=O)O)cc1`, the EC50 was > 11 µM (inactive).
For `CC(C)(C)c1ccc(C(=O)Nc2cccc3ncccc23)cc1`, the EC50 was > 11 µM (inactive).
The figure for `CCCCCCCCOc1ccc(C2OC34CCCCC3C(C#N)(C#N)C2(C#N)C(=N)O4)cc1` (centres undefined) is > 11 µM (inactive); for `O=C(CN1C(=O)C2CC=C(Cl)CC2C1=O)NCc1ccccc1` (centres undefined) it is > 11 µM (inactive); for `Cc1noc(/C=C/N(C)C)c1S(=O)(=O)N1CCC(C(=O)O)CC1` it is > 11 µM (inactive).
As to `O=C(Nc1ccccc1F)c1coc(=O)c(Br)c1`, the EC50 is > 11 µM (inactive).
The figure for `COc1ncnc2c1NC1=C(S2)C(=NCCC(=O)O)CC(C)(C)C1` is > 11 µM (inactive); for `CN(C)c1ccnc(Oc2ccc(Cl)cc2)c1C#N` it is > 11 µM (inactive); for `CCOC(=O)N1CCC(NC(=O)C(Cc2ccccc2)NC(=O)C2CCCCC2)CC1` (centres undefined) it is > 11 µM (inactive).
The figure for `Brc1cc2c(cc1C1Nc3ccccc3C3C=CCC31)OCO2` (centres undefined) is > 11 µM (inactive).
To `CCN(CC)CCN=Cc1c(O)n(Cc2ccccc2)c(=O)[nH]c1=O` belongs > 11 µM (inactive); to `COC(=O)CCCC1=CC2=CC(=O)C(C)(OC(=O)c3cccs3)C(=O)C2=CO1` (centres undefined), > 11 µM (inactive).
With `COc1cccc(N2C(=O)NC(=O)/C(=C/c3ccc4c(c3)Cc3ccccc3-4)C2=O)c1`, the EC50 was > 11 µM (inactive).
The figure for `c1ccc(-c2nnc(-c3ccccn3)nn2)nc1` is > 11 µM (inactive); for `N=c1c(C(=O)NC2CCCCC2)cc2c(=O)n3ccccc3nc2n1Cc1cccnc1` it is > 11 µM (inactive); for `COc1cccc(C2C(C(=O)c3cc4cccc(OC)c4o3)=C(O)C(=O)N2c2cc(C)on2)c1OC` (centres undefined) it is > 11 µM (inactive).
To `COc1ccc(NC(=O)Nc2ccc(OCc3ccccc3)cc2)cn1` belongs > 11 µM (inactive); to `COc1ccc(/C(C)=N/Nc2nc3ccccc3nc2C)cc1OC`, > 11 µM (inactive); to `COC(=O)c1ccc(C23CC4(C2)[C@H](CN(Cc2ccc(C(F)(F)F)cc2)[C@@H]4c2ccccc2)C3c2ccccc2)cc1` (some centres undefined), > 11 µM (inactive).
For the compound `Cc1c(C(=O)O)cccc1-n1c(C)cc(/C=N/Nc2ccc([N+](=O)[O-])cn2)c1C`, the EC50 was > 11 µM (inactive).
The figure for `COc1cc2c3nnc(-c4ccccc4)c-3cn(Cc3ccccc3F)c2cc1OC` is > 11 µM (inactive).
The figure for `COc1cc(/C=C2/C(=O)NN(c3cccc(C)c3)C2=O)cc([N+](=O)[O-])c1O` is > 11 µM (inactive); for `Cc1cc([N+](=O)[O-])ccc1-c1ccc(/C=N/NC(=O)c2ccc(Br)o2)o1` it is > 11 µM (inactive); for `COc1ccccc1OCC(=O)N/N=C/c1c(O)ccc2ccccc12` it is > 11 µM (inactive).
To `O=C(N/N=C\c1ccc(-c2ccc(Cl)c(Cl)c2)o1)C(=O)N1CCCC1` belongs > 11 µM (inactive); to `O=C(Cc1ccccc1)NNC(=O)c1cnccn1`, > 11 µM (inactive).
Consider `CCOC(=O)C1=C(C)N=c2s/c(=C/c3ccc(OCC(=O)O)cc3)c(=O)n2C1c1ccc(OC)cc1OC` (centres undefined), for which the EC50 was > 11 µM (inactive).
The figure for `Cc1ccc(-c2[nH]c3cc(C(N)=O)ccc3c(=O)c2O)cc1` is > 11 µM (inactive).
The figure for `O=c1/c(=C\c2ccc(O)cc2)sc2nc(-c3ccccc3)c(-c3ccccc3)n12` is > 11 µM (inactive).
To `Cc1ccc(N=Nc2c(O)[nH]c3ccc(F)cc23)cc1` belongs > 11 µM (inactive).
Consider `O=S(=O)([N-]c1nc2ccccc2nc1-[n+]1ccc(CCCc2ccccc2)cc1)c1cccs1`, for which the EC50 was > 11 µM (inactive).
To `O=c1[nH][nH]c2cc(=O)n(-c3ccc(Cl)cc3)nc12` belongs > 11 µM (inactive).
Take `N#Cc1c(-c2ccccc2Cl)c2c([nH]c1=O)-c1ccccc1OC2`: the EC50 is > 11 µM (inactive).
Turning to `CC1(OC(=O)c2cccs2)C(=O)C=C2C=C3CCCN3C=C2C1=O` (centres undefined), the EC50 is > 11 µM (inactive).
As to `COc1ccc(C2c3cc(OC)c(OC)cc3CCN2S(C)(=O)=O)cc1OC` (centres undefined), the EC50 is > 11 µM (inactive).
Turning to `N#Cc1c(N)nc(SCc2ccccc2)c(C#N)c1-c1ccco1`, the EC50 is > 11 µM (inactive).
Turning to `O=C(O)CCC(=O)NCc1ccc2[nH]c3c(c2c1)CCCC3`, the EC50 is > 11 µM (inactive).
The figure for `COC(=O)c1ccc(-n2c(CCC(=O)O)ccc2-c2ccccc2)cc1` is > 11 µM (inactive).
The figure for `N#CC(C#N)=Cc1ccc(N2CCOCC2)cc1` is > 11 µM (inactive); for `Cc1ccc(-c2ccc(CCC(=O)O)n2-c2ccc(C(=O)O)cc2)cc1` it is > 11 µM (inactive); for `CCCc1c(O)nc(SCC(=O)N2CCCCC2)[nH]c1=O` it is > 11 µM (inactive).
Take `C=CCN1C(=O)NC(=O)/C(=C/c2ccc(OC)c(CSc3ccccn3)c2)C1=O`: the EC50 is > 11 µM (inactive).
As for `Cc1cc(/C=N/n2cnnc2)c(C)n1-c1ccc(C(=O)O)cc1`, the EC50 was > 11 µM (inactive).
To `Fc1ccc(C2=CC(c3ccco3)n3ncnc3N2)cc1` (centres undefined) belongs > 11 µM (inactive).
The figure for `NS(=O)(=O)c1ccc2c(c1)C1C=CCC1C(C1CC=CCC1)N2` (centres undefined) is > 11 µM (inactive).
The figure for `CCOC(=O)c1cc(-c2ccccc2)sc1NC(=S)Nc1cc(C)ccn1` is > 11 µM (inactive); for `C[n+]1c(-c2ccccc2)c2cc(N)ccc2c2ccc(N)cc21` it is > 11 µM (inactive).
Take `CC(C)c1cc(C(N)=O)c(NC(=O)c2cccc(COc3ccc(Br)cc3)c2)s1`: the EC50 was > 11 µM (inactive).
To `COC(=O)[C@H](CCSC)NC(=O)NC1CCN(Cc2ccccc2)CC1` belongs > 11 µM (inactive).
The figure for `COc1ccc(/C=C2\CCCC(C(=O)C(F)(F)F)=C2O)cc1` is > 11 µM (inactive); for `CCCNS(=O)(=O)c1ccc(CCC(=O)NCc2ccc3c(c2)OCO3)cc1` it is > 11 µM (inactive).
The figure for `Cc1cccc(N2C(=O)/C(=C/c3ccc(CN(CCC#N)S(C)(=O)=O)o3)C(=O)NC2=S)c1` is > 11 µM (inactive); for `Cn1c(=O)c2[nH]c(N/N=C(/C#N)C(N)=O)nc2n(C)c1=O` it is > 11 µM (inactive).
For the compound `CN1C(=O)S/C(=C/c2cccn2-c2cccc(C(=O)O)c2)C1=O`, the EC50 was > 11 µM (inactive).
To `CCCCn1c(O)c(C(=O)/C=C/c2ccc3c(c2)OCO3)c(=O)[nH]c1=O` belongs > 11 µM (inactive); to `C#CCOCCOCCOCCNc1nc(N2CCN(C(=O)[C@H]([C@@H](C)CC)n3cc([C@@H](N)CO)nn3)CC2)nc(N2CCN(C(=O)[C@H]([C@@H](C)CC)n3cc([C@@H](N)CC(C)C)nn3)CC2)n1`, > 11 µM (inactive); to `O=c1[nH]c(=O)n(-c2ccc(Cl)cc2)c(O)c1C=NCCN1CCCCC1`, > 11 µM (inactive).
In the case of `CCOc1ccc(-n2c(O)c(/C=C3\C=Nc4ccccc43)c(=O)[nH]c2=O)cc1`, the EC50 is > 11 µM (inactive).
To `NC(CO)C(=O)NNCc1ccc(O)c(O)c1O` (centres undefined) belongs > 11 µM (inactive); to `COc1ccc(C=C2C(=O)OC(C)(C)OC2=O)cc1OC`, > 11 µM (inactive); to `COc1ccc(NC(=O)/C=C/c2cccc(Br)c2)cn1`, > 11 µM (inactive).
The figure for `NS(=O)(=O)c1ccc(-c2cccc(/C=C3\SC(=O)NC3=O)c2)cc1` is > 11 µM (inactive).
The figure for `COc1cc(C2NC(=S)NC(C)=C2C(=O)OC(C)C)ccc1OC(C)C` (centres undefined) is > 11 µM (inactive).
On to `Cc1ccc(N/C=C2/Sc3ccccc3NC2=O)cc1`, for which the EC50 was > 11 µM (inactive).
To `O=C(CN1CCC(n2nnc3cc(F)ccc32)CC1)NCCc1ccccc1` belongs > 11 µM (inactive); to `Cc1ccc(CN(C)C(=O)CC2C(=O)NCCN2CC2CCCCC2)cc1` (centres undefined), > 11 µM (inactive).
To `COc1ccc(CCC(=O)Nc2cccc(Cl)c2)cc1` belongs > 11 µM (inactive).
To `COC(=O)CCC(=O)OC1(C)C(=O)C=C2C=C(C3CC3)OC=C2C1=O` (centres undefined) belongs > 11 µM (inactive); to `COc1cc(C(CCN2CCCC2)c2c(OC)cc(OC)c3c(-c4ccccc4)cc(=O)oc23)cc(OC)c1OC` (centres undefined), > 11 µM (inactive).
On to `CCN(CC)c1ccc(N=Cc2ccc(N(CC)CC)cc2O)cc1`, for which the EC50 was > 11 µM (inactive).
To `Nc1ccc2nc(-c3cccc(-c4nc5ccc(N)cc5[nH]4)n3)[nH]c2c1` belongs > 11 µM (inactive); to `CCOC(=O)N1CCN(c2nc3ccccc3nc2C(C#N)S(=O)(=O)c2ccc(C)cc2)CC1` (centres undefined), > 11 µM (inactive).
